# Where two headings read alike, the source gives them in different places.
# How the values were obtained:
# ASIC2a = target: T1, ASIC2a (Rattus norvegicus, UniProt Q62962); test: Activity at ASIC2a; assay type: cell-based; settings: inactive at ASIC2a
# T1 sequence (Q62962 1-512): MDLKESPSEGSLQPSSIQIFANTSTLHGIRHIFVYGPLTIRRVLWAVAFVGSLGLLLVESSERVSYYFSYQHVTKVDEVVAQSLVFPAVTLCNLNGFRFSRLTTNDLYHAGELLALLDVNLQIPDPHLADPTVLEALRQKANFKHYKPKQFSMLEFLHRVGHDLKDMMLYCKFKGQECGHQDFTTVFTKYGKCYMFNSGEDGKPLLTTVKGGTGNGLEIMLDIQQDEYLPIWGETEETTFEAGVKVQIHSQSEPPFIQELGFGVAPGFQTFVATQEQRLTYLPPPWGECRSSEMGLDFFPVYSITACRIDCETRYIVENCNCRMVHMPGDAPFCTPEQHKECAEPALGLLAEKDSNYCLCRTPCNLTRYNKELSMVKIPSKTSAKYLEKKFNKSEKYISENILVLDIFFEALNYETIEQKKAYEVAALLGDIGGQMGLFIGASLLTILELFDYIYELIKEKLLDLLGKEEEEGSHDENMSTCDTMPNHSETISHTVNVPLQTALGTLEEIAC
# rat ASIC1a = target: T2, rat ASIC1a (Rattus norvegicus, UniProt P55926); test: Whole-cell patch clamp: inhibition of acid-induced current in CHO cells stably expressing rat ASIC1a; assay type: cell-based
# T2 construct: expressed in transfected cells
# T2 sequence (P55926 1-526): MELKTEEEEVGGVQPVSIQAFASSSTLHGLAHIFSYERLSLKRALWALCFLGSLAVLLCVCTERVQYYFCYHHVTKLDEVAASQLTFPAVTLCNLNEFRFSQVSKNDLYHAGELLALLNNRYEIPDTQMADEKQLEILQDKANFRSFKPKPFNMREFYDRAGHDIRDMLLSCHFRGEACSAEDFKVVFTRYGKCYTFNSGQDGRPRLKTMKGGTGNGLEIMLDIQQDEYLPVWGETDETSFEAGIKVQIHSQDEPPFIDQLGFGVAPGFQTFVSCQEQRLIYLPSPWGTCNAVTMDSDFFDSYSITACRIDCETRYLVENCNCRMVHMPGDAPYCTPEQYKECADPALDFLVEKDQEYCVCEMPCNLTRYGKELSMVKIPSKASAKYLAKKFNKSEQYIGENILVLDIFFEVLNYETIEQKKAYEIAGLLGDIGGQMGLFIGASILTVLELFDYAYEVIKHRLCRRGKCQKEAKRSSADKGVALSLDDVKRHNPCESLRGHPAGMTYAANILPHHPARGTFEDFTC
# Protocol: Chinese Hamster Ovary (CHO) cells stably expressing rat ASIC1a were cultured in Ham’s F12, supplemented with 10% FBS, 1% penicillin–streptomycin and 500 µg/mL G418 and incubated at 37 °C with 5% CO2. Transient transfections of rASIC1a and cASIC1 wild-type or mutant channels in CHO cells were performed with Lipofectamine 3000 (Thermo Fisher Scientific) according to the manufacturer’s recommendations. The green fluorescent protein (GFP) cDNA (at 1/10 the amount of channel cDNA) was co-transfected with channel cDNA to aid the identification of transfected cells under the microscope in patch clamp experiments. All cDNAs were sequence verified.
# Cells were freshly dissociated with CellStripper (Corning) and dispersed in a chamber on the stage of an inverted microscope. Upon formation of the whole-cell conformation, the cell was lifted from the bottom of the chamber and placed at the tip of a tubing perfusing an extracellular solution containing (in mM): 149 NaCl, 2 CaCl2, 4 KCl, 1 MgCl2, 5 glucose, 10 HEPES, pH 7.4, 310 mOsm/L. Extracellular solutions at more basic or acidic pHs were made by titrating the above pH 7.4 solution with NaOH or HCl (5 mM MES was added to solutions at pH 6.0 and lower). Pipette electrodes were filled with an intracellular solution containing (in mM): 135 KCl, 4 MgATP, 0.3 Na2GTP, 10 EGTA, and 20 HEPES, pH 7.2, 290 mOsm/L.
# All recordings were performed at room temperature using an Axopatch 200B amplifier and pClamp 11 software (Molecular Devices). Currents were measured by whole-cell patch clamp, digitized at 10 kHz and lowpass filtered at 2 kHz. Series resistance was 75% compensated. Responses were elicited by rapid perfusion of acidic solutions using the SF-77B Fast-Step Perfusion device (Warner Instruments) for 40 ms once every 30 s (unless indicated otherwise) and recorded till steady state was reached. The holding potential was 0 mV unless indicated otherwise.
# Baseline values (i.e., current amplitudes at the conditioning pH) were subtracted to obtain responses evoked by the test pH. Responses were normalized for each cell before averaging (see figure legends for more detail on normalization for each type of experiment). Concentration–response data were fitted to a logistic function of the form: R = (A1–A2)/(1 + (C/C0)^h)+A2, where R is the normalized response, C is either pH or compound concentration, C0 is the pH/concentration at which half-maximal response occurs (pH50 or IC50), h is the Hill coefficient, and A1 and A2 are constants. Kinetic parameters were obtained by fitting the data with either a single or double exponential function. Fitted data are shown as solid, dashed, or dotted curves.
# [1] = CHO, pH 6, pH6.0, 10 nM, read-out: current inhibition, mean (source data Fig. 1e)
# [2] = CHO, pH 6, pH6.0, 30 nM, read-out: current inhibition, mean (source data Fig. 1e)
# [3] = CHO, pH 6, pH6.0, 100 nM, read-out: current inhibition, mean (source data Fig. 1e)
# [4] = CHO, pH 6, pH6.0, 300 nM, read-out: current inhibition, mean (source data Fig. 1e)
# [5] = CHO, pH 6, pH6.0, 1000 nM, read-out: current inhibition, mean (source data Fig. 1e)
# [6] = CHO, pH 7.1, pH7.1, 3 nM, read-out: current inhibition, mean (source data Fig. 1e)
# [7] = CHO, pH 7.1, pH7.1, 10 nM, read-out: current inhibition, mean (source data Fig. 1e)
# [8] = CHO, pH 7.1, pH7.1, 30 nM, read-out: current inhibition, mean (source data Fig. 1e)
# [9] = CHO, pH 7.1, pH7.1, 100 nM, read-out: current inhibition, mean (source data Fig. 1e)
# [10] = test pH 6.0, holding pH 8.2, WT
SMILES,IC50 (ASIC2a),inhibition at 0.01 µM (rat ASIC1a; [1]),inhibition at 0.03 µM (rat ASIC1a; [2]),inhibition at 0.1 µM (rat ASIC1a; [3]),inhibition at 0.3 µM (rat ASIC1a; [4]),inhibition at 1 µM (rat ASIC1a; [5]),inhibition at 0.003 µM (rat ASIC1a; [6]),inhibition at 0.01 µM (rat ASIC1a; [7]),inhibition at 0.03 µM (rat ASIC1a; [8]),inhibition at 0.1 µM (rat ASIC1a; [9]),"max %inhibition (rat ASIC1a; test pH 6.0, holding pH 8.2)",IC50 (rat ASIC1a; [10]),"IC50 (rat ASIC1a; test pH 7.1, holding pH 8.2)","max %inhibition (rat ASIC1a; test pH 7.1, holding pH 8.2)",further results
COc1ccc(Oc2ccc(-c3nc4cc(C(=N)N)ccc4[nH]3)cc2)cc1OC [JNJ-799760],> 50 µM,23.5%,45.7%,66.3%,78.3%,80.7%,45.1%,74.6%,94.4%,99.1%,83.1 ± 1.2%,0.0249 ± 0.0013 µM,0.0036 ± 0.0002 µM,100%,
Cc1cc(N2CC(Oc3cc(F)c4c(N)n[nH]c4c3)C2)c(F)cn1 [JNJ-67869386],> 50 µM,17.9%,38.3%,61.3%,68.9%,71.7%,42.7%,78.1%,96.5%,99.8%,76.5 ± 2.2%,0.0289 ± 0.0036 µM,0.0038 ± 0.0002 µM,100%,"inhibition at 0.01 µM (rat ASIC1a; CHO, pH 5, pH5.0, 10 nM, read-out: current inhibition, mean (source data Fig. 1e)): 8%; inhibition at 0.03 µM (rat ASIC1a; CHO, pH 5, pH5.0, 30 nM, read-out: current inhibition, mean (source data Fig. 1e)): 15.3%; inhibition at 0.1 µM (rat ASIC1a; CHO, pH 5, pH5.0, 100 nM, read-out: current inhibition, mean (source data Fig. 1e)): 20.5%; inhibition at 0.3 µM (rat ASIC1a; CHO, pH 5, pH5.0, 300 nM, read-out: current inhibition, mean (source data Fig. 1e)): 25.2%; inhibition at 1 µM (rat ASIC1a; CHO, pH 5, pH5.0, 1000 nM, read-out: current inhibition, mean (source data Fig. 1e)): 28.4%; inhibition at 3 µM (rat ASIC1a; CHO, pH 6, pH6.0, 3000 nM, read-out: current inhibition, mean (source data Fig. 1e)): 79.2%; inhibition at 0.01 µM (rat ASIC1a; CHO, pH 6.8, 10 nM, 0 mV, read-out: inhibition of pH 6.8-induced current): 75.6 ± 6.9%; inhibition at 0.01 µM (rat ASIC1a; CHO, pH 6.8, 10 nM, −80 mV, read-out: inhibition of pH 6.8-induced current): 78.2 ± 5%; inhibition at 0.001 µM (rat ASIC1a; CHO, pH 6.8, pH6.8, 1 nM, read-out: current inhibition, mean (source data Fig. 1e)): 15.3%; inhibition at 0.003 µM (rat ASIC1a; CHO, pH 6.8, pH6.8, 3 nM, read-out: current inhibition, mean (source data Fig. 1e)): 33.9%; inhibition at 0.01 µM (rat ASIC1a; CHO, pH 6.8, pH6.8, 10 nM, read-out: current inhibition, mean (source data Fig. 1e)): 62.8%; inhibition at 0.03 µM (rat ASIC1a; CHO, pH 6.8, pH6.8, 30 nM, read-out: current inhibition, mean (source data Fig. 1e)): 89.8%; inhibition at 0.1 µM (rat ASIC1a; CHO, pH 6.8, pH6.8, 100 nM, read-out: current inhibition, mean (source data Fig. 1e)): 97.6%; IC50 (rat ASIC1a; test pH 5.0, holding pH 8.2): 0.0344 ± 0.0076 µM; max %inhibition (rat ASIC1a; test pH 5.0, holding pH 8.2): 30.4 ± 1.8%; IC50 (rat ASIC1a; test pH 6.8, holding pH 8.2): 0.0055 ± 0.0004 µM; max %inhibition (rat ASIC1a; test pH 6.8, holding pH 8.2): 100%"
